Literature values, collected in patent US6660296B2, “Sustained-release microgranules containing diltiazem as active principle” (Laboratories des Produits Ethiques Ethypharim, priority 1995, dated 2003).

Conditions: neutral or basic pH; Diltiazem or its pharmaceutically acceptable salts

Solubility: sparingly soluble
Structure (SMILES): COc1ccc([C@@H]2Sc3ccccc3N(CCN(C)C)C(=O)[C@@H]2OC(C)=O)cc1 [Diltiazem]
